From patent US11344554B2, “Animal and human anti-malarial agents” (Celgene Corporation, priority 2016, dated 2022)
Where two headings read alike, the source gives them in different places.

Test system: Plasmodium falciparum
Test: Plasmodium falciparum in vitro [3H]-hypoxanthine parasite growth inhibition assay
Assay type: cell-based
Conditions: Erythrocyte, read-out: Act Class (IC50 activity level)
[1] = P. falciparum asexual blood stage parasites in human erythrocytes, [3H]-hypoxanthine uptake

SMILES | IC50 [µM] | IC50 [1] [µM]
CC(C)(C)Nc1ncc2nc(Nc3cc(Cl)cc(C(F)(F)F)c3)n(CC3CCNC3)c2n1 (centres unmarked) [Cpd 98, N2-tert-butyl-N8-(3-chloro-5-(trifluoromethyl)phenyl)-9-(pyrrolidin-3-ylmethyl)-9H-purine-2,8-diamine] | 0.2 to 0.5 | –
CC(C)(C)Nc1ncc2nc(Nc3cccc(Cl)c3)n(CCn3ccnc3)c2n1 [Cpd 1, 9-(2-(1H-imidazol-1-yl)ethyl)-N2-tert-butyl-N8-(3-chlorophenyl)-9H-purine-2,8-diamine] | – | 0.2 to 0.5
FC(F)(F)c1cc(Cl)cc(Nc2nc3cnc(NC4CCOCC4)nc3n2C2CCNCC2)c1 [Cpd 51, N8-(3-chloro-5-(trifluoromethyl)phenyl)-9-(piperidin-4-yl)-N2-(tetrahydro-2H-pyran-4-yl)-9H-purine-2,8-diamine] | – | 0.1 to 0.2
FC(F)(F)c1cc(Nc2nc3cnc(NC4CC4)nc3n2C2CCNCC2)cc(C(F)(F)F)c1 [Cpd 96, N8-(3,5-bis(trifluoromethyl)phenyl)-N2-cyclopropyl-9-(piperidin-4-yl)-9H-purine-2,8-diamine] | – | 0.1 to 0.2
CC(C)Nc1ncc2nc(Nc3cc(F)cc(Cl)c3)n(C3CCNCC3)c2n1 [Cpd 63, N8-(3-chloro-5-fluorophenyl)-N2-isopropyl-9-(piperidin-4-yl)-9H-purine-2,8-diamine] | – | < 0.1
CC(C)(C)Nc1ncc2nc(Nc3ccc(C#N)cc3)n(C3CCNCC3)c2n1 [Cpd 14, 4-(2-(tert-butylamino)-9-(piperidin-4-yl)-9H-purin-8-ylamino)benzonitrile] | – | 0.5 to 1.2
FC(F)(F)c1cccc(Nc2nc3cnc(NC4CCOCC4)nc3n2C2CCNCC2)c1 [Cpd 46, 9-(piperidin-4-yl)-N2-(tetrahydro-2H-pyran-4-yl)-N8-(3-(trifluoromethyl)phenyl)-9H-purine-2,8-diamine] | – | 0.5 to 1.2
CC1(Nc2ncc3nc(Nc4cc(Cl)cc(C(F)(F)F)c4)n(C4CCNCC4)c3n2)CCC1 [Cpd 69, N8-(3-chloro-5-(trifluoromethyl)phenyl)-N2-(1-methylcyclobutyl)-9-(piperidin-4-yl)-9H-purine-2,8-diamine] | – | < 0.1
CC1(Nc2ncc3nc(Nc4cc(Cl)cc(C(F)(F)F)c4)n(C4CCNCC4)c3n2)CCCC1 [Cpd 68, N8-(3-chloro-5-(trifluoromethyl)phenyl)-N2-(1-methylcyclopentyl)-9-(piperidin-4-yl)-9H-purine-2,8-diamine] | – | < 0.1
CC(C)(C)Nc1ncc2nc(Nc3cccc(OC(F)(F)F)c3)n(C3CCNCC3)c2n1 [Cpd 29, N2-tert-butyl-9-(piperidin-4-yl)-N8-(3-(trifluoromethoxy)phenyl)-9H-purine-2,8-diamine] | – | < 0.1
CC(C)(C)Nc1ncc2nc(Nc3cccc(C(F)(F)F)c3)n(CCN3CCNCC3)c2n1 [Cpd 22, N2-tert-butyl-9-(2-(piperazin-1-yl)ethyl)-N8-(3-(trifluoromethyl)phenyl)-9H-purine-2,8-diamine] | – | 0.5 to 1.2
CC1(Nc2ncc3nc(Nc4ccc(C(F)(F)F)c(Cl)c4)n(C4CCNCC4)c3n2)CCCC1 [Cpd 94, N8-(3-chloro-4-(trifluoromethyl)phenyl)-N2-(1-methylcyclopentyl)-9-(piperidin-4-yl)-9H-purine-2,8-diamine] | – | 0.1 to 0.2
CC1(Nc2ncc3nc(Nc4cccc(Cl)c4)n(CCN4CCCC4)c3n2)CCOCC1 [Cpd 17, N8-(3-chlorophenyl)-N2-(4-methyltetrahydro-2H-pyran-4-yl)-9-(2-(pyrrolidin-1-yl)ethyl)-9H-purine-2,8-diamine] | – | 0.5 to 1.2
CC(C)(C)Nc1ncc2nc(Nc3ccc(Cl)cc3)n(C3CCNCC3)c2n1 [Cpd 7, N2-tert-butyl-N8-(4-chlorophenyl)-9-(piperidin-4-yl)-9H-purine-2,8-diamine] | – | 0.1 to 0.2
FC(F)(F)c1ccc(Nc2nc3cnc(NC4CCC4)nc3n2C2CCNCC2)cc1Cl [Cpd 83, N8-(3-chloro-4-(trifluoromethyl)phenyl)-N2-cyclobutyl-9-(piperidin-4-yl)-9H-purine-2,8-diamine] | – | 0.1 to 0.2
CC(C)(C)Nc1ncc2nc(Nc3ccc(C(F)(F)F)c(Cl)c3)n(C3CCNCC3)c2n1 [Cpd 82, N2-tert-butyl-N8-(3-chloro-4-(trifluoromethyl)phenyl)-9-(piperidin-4-yl)-9H-purine-2,8-diamine] | – | 0.2 to 0.5
CC(C)(C)Nc1ncc2nc(Nc3cccc(C(F)F)c3)n(C3CCNCC3)c2n1 [Cpd 33, N2-tert-butyl-N8-(3-(difluoromethyl)phenyl)-9-(piperidin-4-yl)-9H-purine-2,8-diamine] | – | 0.2 to 0.5
CC(C)Nc1ncc2nc(Nc3cc(Cl)cc(C(F)(F)F)c3)n(C3CCNCC3)c2n1 [Cpd 44, N8-(3-chloro-5-(trifluoromethyl)phenyl)-N2-isopropyl-9-(piperidin-4-yl)-9H-purine-2,8-diamine] | – | < 0.1
CC(C)Nc1ncc2nc(Nc3cc(Cl)cc(Cl)c3)n(C3CCNCC3)c2n1 [Cpd 43, N8-(3,5-dichlorophenyl)-N2-isopropyl-9-(piperidin-4-yl)-9H-purine-2,8-diamine] | – | < 0.1

SMILES | IC50 [µM] | IC50 [1] [µM]
CC(C)(C)Nc1ncc2nc(Nc3cccc(C(F)(F)F)c3)n(CCC3CCNC3)c2n1 (centres unmarked) [Cpd 18, N2-tert-butyl-9-(2-(pyrrolidin-3-yl)ethyl)-N8-(3-(trifluoromethyl)phenyl)-9H-purine-2,8-diamine] | – | 0.1 to 0.2
CC(C)Nc1ncc2nc(Nc3ccc(Cl)c(Cl)c3)n(C3CCNCC3)c2n1 [Cpd 65, N8-(3,4-dichlorophenyl)-N2-isopropyl-9-(piperidin-4-yl)-9H-purine-2,8-diamine] | – | < 0.1
CC(N)CCn1c(Nc2cc(Cl)cc(C(F)(F)F)c2)nc2cnc(NC3CCCC3)nc21 (centres unmarked) [Cpd 111, 9-(3-aminobutyl)-N8-(3-chloro-5-(trifluoromethyl)phenyl)-N2-cyclopentyl-9H-purine-2,8-diamine] | – | 0.1 to 0.2
CC(C)(C)Nc1ncc2nc(Nc3cccc(C(F)(F)F)c3)n(C3CC4CNCC4C3)c2n1 (centres unmarked) [Cpd 95, N2-tert-butyl-9-(octahydrocyclopenta[c]pyrrol-5-yl)-N8-(3-(trifluoromethyl)phenyl)-9H-purine-2,8-diamine] | – | 0.2 to 0.5
CC1(Nc2ncc3nc(Nc4cc(F)cc(Cl)c4)n(C4CCNCC4)c3n2)CC1 [Cpd 64, N8-(3-chloro-5-fluorophenyl)-N2-(1-methylcyclopropyl)-9-(piperidin-4-yl)-9H-purine-2,8-diamine] | – | < 0.1
CC1(Nc2ncc3nc(Nc4ccc(Cl)c(C(F)(F)F)c4)n(C4CCNCC4)c3n2)CC1 [Cpd 89, N8-(4-chloro-3-(trifluoromethyl)phenyl)-N2-(1-methylcyclopropyl)-9-(piperidin-4-yl)-9H-purine-2,8-diamine] | – | 0.2 to 0.5
CC(C)(C)Nc1ncc2nc(Nc3cc(Cl)cc(Cl)c3)n(C3CCNCC3)c2n1 [Cpd 20, N2-tert-butyl-N8-(3,5-dichlorophenyl)-9-(piperidin-4-yl)-9H-purine-2,8-diamine] | – | < 0.1
CC(C)(C)Nc1ncc2nc(Nc3cccc(C(F)(F)F)c3)n(CC3CCNC3)c2n1 (centres unmarked) [Cpd 24, N2-tert-butyl-9-(pyrrolidin-3-ylmethyl)-N8-(3-(trifluoromethyl)phenyl)-9H-purine-2,8-diamine] | – | 0.2 to 0.5
Fc1cc(Cl)cc(Nc2nc3cnc(NC4CC4)nc3n2C2CCNCC2)c1 [Cpd 62, N8-(3-chloro-5-fluorophenyl)-N2-cyclopropyl-9-(piperidin-4-yl)-9H-purine-2,8-diamine] | – | 0.1 to 0.2
FC(F)(F)c1cc(Nc2nc3cnc(NC4CCCC4)nc3n2C2CCNCC2)cc(C(F)(F)F)c1 [Cpd 85, N8-(3,5-bis(trifluoromethyl)phenyl)-N2-cyclopentyl-9-(piperidin-4-yl)-9H-purine-2,8-diamine] | – | < 0.1
CC(C)(C)Nc1ncc2nc(Nc3ccc(Cl)c(C(F)(F)F)c3)n(C3CCNCC3)c2n1 [Cpd 88, N2-tert-butyl-N8-(4-chloro-3-(trifluoromethyl)phenyl)-9-(piperidin-4-yl)-9H-purine-2,8-diamine] | – | 0.1 to 0.2
CC(C)(C)Nc1ncc2nc(Nc3cncc(Cl)c3)n(C3CCNCC3)c2n1 [Cpd 30, N2-tert-butyl-N8-(5-chloropyridin-3-yl)-9-(piperidin-4-yl)-9H-purine-2,8-diamine] | – | 0.5 to 1.2
CC1(Nc2ncc3nc(Nc4cc(Cl)cc(Cl)c4)n(C4CCNCC4)c3n2)CCOCC1 [Cpd 61, N8-(3,5-dichlorophenyl)-N2-(4-methyltetrahydro-2H-pyran-4-yl)-9-(piperidin-4-yl)-9H-purine-2,8-diamine] | – | < 0.1
FC(F)(F)c1ccc(Nc2nc3cnc(NC4CCCC4)nc3n2C2CCNCC2)cc1Cl [Cpd 92, N8-(3-chloro-4-(trifluoromethyl)phenyl)-N2-cyclopentyl-9-(piperidin-4-yl)-9H-purine-2,8-diamine] | – | 0.2 to 0.5
CC(C)(C)Nc1ncc2nc(Nc3cccc(C(F)(F)F)c3)n(C3CCN(CCN)CC3)c2n1 [Cpd 4, 9-(1-(2-aminoethyl)piperidin-4-yl)-N2-tert-butyl-N8-(3-(trifluoromethyl)phenyl)-9H-purine-2,8-diamine] | – | < 0.1
CN(C)CCCn1c(Nc2cccc(C(F)(F)F)c2)nc2cnc(NC(C)(C)C)nc21 [Cpd 32, N2-tert-butyl-9-(3-(dimethylamino)propyl)-N8-(3-(trifluoromethyl)phenyl)-9H-purine-2,8-diamine] | – | 0.5 to 1.2
FC(F)(F)c1cc(Cl)cc(Nc2nc3cnc(NC4CCC4)nc3n2C2CCNCC2)c1 [Cpd 52, N8-(3-chloro-5-(trifluoromethyl)phenyl)-N2-cyclobutyl-9-(piperidin-4-yl)-9H-purine-2,8-diamine] | – | < 0.1
CC(C)(C)Nc1ncc2nc(Nc3cccc(C(F)(F)F)c3)n(CC3CCNCC3)c2n1 [Cpd 23, N2-tert-butyl-9-(piperidin-4-ylmethyl)-N8-(3-(trifluoromethyl)phenyl)-9H-purine-2,8-diamine] | – | 0.5 to 1.2
CC1(Nc2ncc3nc(Nc4cc(Cl)cc(C(F)(F)F)c4)n(C4CCNCC4)c3n2)CCOCC1 [Cpd 54, N8-(3-chloro-5-(trifluoromethyl)phenyl)-N2-(4-methyltetrahydro-2H-pyran-4-yl)-9-(piperidin-4-yl)-9H-purine-2,8-diamine] | – | < 0.1
